From patent US11717517B2, “LSD dose identification” (Universitätsspital Basel, priority 2020, dated 2023)
Where two headings read alike, the source gives them in different places.

Experiments:
healthy subjects [1] = test: Subjective drug effects (VAS, 5D-ASC, MEQ, AMRS), double-blind placebo-controlled cross-over study
Method: (§1) Study design: The study used a double-blind, placebo-controlled, cross-over design with six experimental test sessions to investigate the responses to 1) placebo 2) 25 μg, 3) 50 μg, 4) 100 μg, 5) 200 μg LSD, and 6) 200 μg LSD after ketanserin (40 mg). The washout periods between sessions were at least 10 days. The study was registered at ClinicalTrials.gov (NCT03321136).
Participants: Sixteen healthy subjects (eight men and eight women; mean age±SD: 29±6.4 years; range: 25-52 years). Participants who were younger than 25 years old were excluded from participating in the study. Additional exclusion criteria were age >65 years, pregnancy (urine pregnancy test at screening and before each test session), personal or family (first-degree relative) history of major psychiatric disorders (assessed by the Semi-structured Clinical Interview for Diagnostic and Statistical Manual of Mental Disorders, 4th edition, Axis I disorders by a trained psychiatrist), the use of medications that can interfere with the study medications (e.g. antidepressants, antipsychotics, sedatives), chronic or acute physical illness (abnormal physical exam, electrocardiogram, or hematological and chemical blood analyses), tobacco smoking (>10 cigarettes/day), lifetime prevalence of illicit drug use >10 times (except for Δ^9-tetrahydrocannabinol), illicit drug use within the last 2 months, and illicit drug use during the study (determined by urine drug tests).
Thus, subjects ingested 2 mL of LSD solution and/or placebo (96% ethanol) per session: 1) placebo/placebo, 2) 25 μg LSD/placebo, 3) 25 μg LSD/25 μg LSD, 4) 100 μg LSD/placebo, 5) 100 μg LSD/100 μg LSD, 6. 100 μg LSD/100 μg LSD). Ketanserin was obtained as the marketed drug (KETENSIN®, Janssen) and encapsulated with opaque capsules to ensure blinding. Placebo consisted of identical opaque capsules filled with mannitol. Thus, blinding to treatment was guaranteed by using a double-dummy method, with identical capsules and vials that were filled with mannitol and ethanol, respectively, as placebo. At the end of each session and at the end of the study, the participants were asked to retrospectively guess their treatment assignment.
(§2) Study procedures: The study included a screening, six 25 hour test sessions, and an end-of-study visit. The sessions were conducted in a calm standard hospital room. Only one research subject and one investigator were present during the test sessions. The test sessions began at 7:45 AM. The subjects then underwent baseline measurements. Ketanserin (40 mg) or placebo was administered at 8:00 AM. LSD or placebo was administered at 9:00 AM. The outcome measures were repeatedly assessed for 24 hours. A standardized lunch and dinner were served at 1:30 PM and 6:00 PM, respectively. The subjects were under constant supervision by an investigator until 1:00 AM. Thus, the subjects were never alone during the first 16 hours after drug administration, and the investigator was in a room next to the subject for up to 24 hours. The subjects were sent home the next day at 9:15 AM.
Subjective drug effects: Subjective effects were assessed repeatedly using visual analog scales (VASs) 1 hour before and 0, 0.5, 1, 1.5, 2, 2.5, 3, 4, 5, 6, 7, 8, 9, 10, 11, 12, 14, 16, and 24 hours after LSD administration. […] The VASs were presented as 100-mm horizontal lines (0-100%), marked from “not at all” on the left to “extremely” on the right. The VASs for “concentration”, and “perception of time” were bidirectional (±50%). Marked from “not at all” on the left (−50), to “normal” in the middle (0), to “extremely” on the right (+50) for concentration and “slowed” (−50) and “racing” (+50) for “perception of time”.

[2] = Stability of oral LSD solution (isomerization to iso-LSD); type: physicochemical
Method: Each dose of LSD was formulated as a solution to be administered orally in 1 ml of 96% ethanol according to GMP (batch BZ17-2; 25 μg and 100 μg vials) and stored free in argon-prefilled vials in the dark at 4° C. The exact analytically confirmed LSD contents (mean±SD) of the 25 μg and 100 μg formulation were […], respectively, after production. Stability of the formulation for longer than the study period was documented in an identically produced previous batch (batch BZ16). […] Vials that were stored at room temperature had higher iso-LSD contents of 0%, 3.1%, 3.4%, 6.7%, and 9.5% after 2, 4, 6, 12 and 24 months, respectively. The 100 μg LSD dose of that was used in the present study would correspond to a dose of approximately 125 μg of LSD tartrate including crystal water, which is the form of LSD that is more likely to be used when acquired illegally (i.e., in blotter form) for recreational use or was used in other recent studies (Bershad et al., 2019; Yanakieva et al., 2019).

healthy subjects [3] = test: Autonomic and adverse effects (blood pressure, heart rate, body temperature, List of Complaints)
Method: as §1, §2
Autonomic, adverse, and endocrine effects: Blood pressure, heart rate, and tympanic body temperature were repeatedly measured 1 hour before and 0, 0.5, 1, 1.5, 2.5, 3, 4, 5, 6, 7, 8, 9, 10, 11, 12, 14, 16, and 24 hours after drug administration as previously described in detail (Hysek et al., 2010). […] This scale yields a total adverse effects score and reliably measures physical and general discomfort.
Data analysis: Peak (Emax and/or Emin) or peak change from baseline (ΔEmax) values were determined for repeated measures. The values were then analyzed using repeated-measures analysis of variance (ANOVA), with drug as within-subjects factor, followed by Tukey post hoc comparisons using Statistica 12 software (StatSoft, Tulsa, Okla., USA). The criterion for significance was p<0.05.

[4] = tested on: brain-derived neurotrophic factor (BDNF)
Method: Plasma BDNF levels were measured at baseline and 6, 12, and 24 hours after drug administration using the Biosensis Mature BDNF Rapid ELISA Kit (Thebarton, Australia) (Akimoto et al., 2019).

healthy humans = conditions: cited from earlier work
[5] = Plasma exposure to LSD and iso-LSD after LSD capsules in previous studies; conditions: assuming similar bioavailability
[6] = after 200 μg dose as two 100 μg capsules; Steuer et al., 2017; cited from earlier work
[7] = Plasma drug concentrations and pharmacokinetic-pharmacodynamic modeling; type: in vivo, human
Method: Plasma drug concentrations: Blood was collected into lithium heparin tubes 1 hour before and 0, 0.5, 1, 2, 3, 4, 6, 8, 10, 12, 14, 16, and 24 hours after LSD administration. The blood samples were immediately centrifuged, and the plasma was subsequently stored at −80° C. until analysis. Plasma concentrations of LSD and O-H-LSD were determined using a validated ultra-high-performance liquid chromatography tandem mass spectrometry method as described previously in detail (Holze et al., 2019).
Pharmacokinetic analyses and pharmacokinetic-pharmacodynamic modeling: Pharmacokinetic parameters were estimated using a one-compartment model with first-order input, first-order elimination, and no lag time in Phoenix WinNonlin 6.4 (Certara, Princeton, N.J., USA) as described previously in detail (Holze et al., 2019).

SMILES: O=C(c1ccc(F)cc1)C1CCN(CCn2c(=O)[nH]c3ccccc3c2=O)CC1 [Ketanserin]
- effect of ketanserin on LSD effects at the 5-HT2a receptor (healthy subjects [1]; ketanserin 40 mg given prior to 200 μg LSD): blocks LSD side effects

SMILES: CCN(CC)C(=O)[C@@H]1C=C2c3cccc4[nH]cc(c34)C[C@H]2N(C)C1 [LSD, D-lysergic acid diethylamide base]
- iso-LSD content (% of initial LSD content) ([2]; solution in 96% ethanol, batch BZ16, 4° C., 4 months): 0.1%
- iso-LSD content (% of initial LSD content) ([2]; solution in 96% ethanol, batch BZ16, 4° C., 6 months): 0.1%
- iso-LSD content (% of initial LSD content) ([2]; solution in 96% ethanol, batch BZ16, 4° C., 12 months): 1.3%
- iso-LSD content (% of initial LSD content) ([2]; solution in 96% ethanol, batch BZ16, 4° C., 18 months): 3.2%
- iso-LSD content (% of initial LSD content) ([2]; solution in 96% ethanol, batch BZ16, 4° C., 24 months): 3.6%
- other decomposition products ([2]; solution stored at 4° C.): No other decomposition products were present
- iso-LSD content (% of initial LSD content) ([2]; vials at room temperature, 2 months): 0%
- iso-LSD content (% of initial LSD content) ([2]; vials at room temperature, 4 months): 3.1%
- iso-LSD content (% of initial LSD content) ([2]; vials at room temperature, 6 months): 3.4%
- iso-LSD content (% of initial LSD content) ([2]; vials at room temperature, 12 months): 6.7%
- iso-LSD content (% of initial LSD content) ([2]; vials at room temperature, 24 months): 9.5%
- body temperature (healthy subjects [3]; 25-200 μg): no effect
- heart rate (healthy subjects [3]; 100 and 200 μg): moderately but significantly increased
- total acute (0-12 hours) adverse effects score on the LC compared with placebo and all other conditions (healthy subjects [3]; 100 and 200 μg): increased
- severe adverse events (healthy subjects [3]; all conditions): No severe adverse events were observed
- blood pressure (healthy subjects [3]; doses of 50 μg or higher): moderately but significantly increased
- BDNF plasma concentration compared with placebo ([4]; 200 μg LSD): significantly increased
- time of peak BDNF plasma concentration ([4]; 200 μg LSD): 6 h
- plasma BDNF ([4]; lower doses of LSD (25, 50, 100 μg)): non-significant increases
- subjects with bad drug effects (50% or more on a 0-100% scale at any time point) (healthy humans; 0.1 mg LSD, 3 of 24 subjects (Dolder et al., 2017)): 12.5%
- subjects with transient bad drug effects (healthy humans; 0.1 mg LSD, 7 of 24 subjects (Holze et al., 2019)): 29%
- subjects with bad drug effects (50% or more on a 0-100% scale at any time point) (healthy humans; 0.2 mg LSD, 9 of 16 subjects (Dolder et al., 2017)): 56%
- subjects with marked anxiety (healthy humans; 0.2 mg LSD, sixteen healthy humans (Schmid et al., 2015)): two
- clinical response to 75 μg intravenous LSD versus oral 100 μg dose (healthy humans; previous studies (Carhart-Harris et al., 2016a; Liechti, 2017)): not significantly different
- VAS any drug effect compared with placebo (healthy subjects [1]; 25 μg oral, P<0.05, 16 subjects): significant
- VAS good drug effect, dose dependence (healthy subjects [1]; 25, 50, 100, 200 μg oral): dose-dependent good drug effects up to the 100 μg dose
- anxiety on the 5D-ASC and AMRS (healthy subjects [1]; 100 and 200 μg, P<0.01 for both): only the 200 μg but not the 100 μg dose of LSD induced significant anxiety
- anxious ego-dissolution on the 5D-ASC, 200 μg versus 100 μg (healthy subjects [1]; P<0.05): greater
- ego-dissolution on the VAS, 200 μg versus 100 μg (healthy subjects [1]; P<0.05): significantly greater
- subjectively negative nadir effects, 200 μg versus 100 μg (healthy subjects [1]; P<0.05): greater
- most scales (particularly positive subjective effects) with increasing doses (healthy subjects [1]; at the 100 μg dose, no significant differences between 100 and 200 μg): ceiling effect was reached
- AUC∞ as % of value expected from confirmed 96 μg LSD doses ([5]; 100 μg capsule dose): 61%
- AUC∞ as % of value expected from confirmed 96 μg LSD doses ([5]; 200 μg capsule dose): 76%
- plasma AUC24 [6]: 21 ng·h/mL
- plasma concentrations of LSD, dose proportionality ([7]; 25, 50, 100, 200 μg oral): increased proportionally with increasing doses
- VAS bad drug effect, 200 μg compared with 100 μg ([7]; in vivo): higher bad drug effects
- effect duration ([7]; with increasing doses): longer effect durations
- time to offset of the LSD response ([7]; with increasing doses): increased
- time to onset of the LSD response ([7]; with increasing doses): decreased

SMILES: CCN(CC)C(=O)[C@H]1C=C2c3cccc4[nH]cc(c34)C[C@H]2N(C)C1 [iso-LSD]
- plasma AUC24 [6]: 9.2 ng·h/mL
